Data published in ChEMBL document CHEMBL4043085, “Anisucoumaramide, a Bioactive Coumarin from Clausena anisum-olens” (J Nat Prod, 2017).

Key:
[1] = biological target: T1, Amine oxidase [flavin-containing] B (Homo sapiens, UniProt P27338); experiment: Inhibition of human recombinant MAOB assessed as reduction in H2O2 production from p-tyramine incubated for 15 mins by Amplex red reagent based fluorimetric method
T1 sequence (P27338 whole entry): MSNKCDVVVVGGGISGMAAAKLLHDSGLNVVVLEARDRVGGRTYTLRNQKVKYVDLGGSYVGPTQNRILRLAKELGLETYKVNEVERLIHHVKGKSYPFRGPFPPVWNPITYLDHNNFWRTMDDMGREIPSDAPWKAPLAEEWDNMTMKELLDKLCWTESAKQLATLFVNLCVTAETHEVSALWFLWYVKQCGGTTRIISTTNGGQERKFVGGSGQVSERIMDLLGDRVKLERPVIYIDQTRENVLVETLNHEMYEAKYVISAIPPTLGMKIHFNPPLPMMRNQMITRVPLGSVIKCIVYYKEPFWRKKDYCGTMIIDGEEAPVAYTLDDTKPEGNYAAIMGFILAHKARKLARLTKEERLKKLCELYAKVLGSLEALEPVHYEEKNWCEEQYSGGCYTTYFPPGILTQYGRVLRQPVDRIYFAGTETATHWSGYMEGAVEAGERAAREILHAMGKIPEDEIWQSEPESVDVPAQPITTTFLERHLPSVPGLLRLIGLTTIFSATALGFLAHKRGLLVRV

[2] = biological target: T2, Amine oxidase [flavin-containing] A (Homo sapiens, UniProt P21397); experiment: Inhibition of human recombinant MAOA assessed as reduction in H2O2 production from p-tyramine at 100 uM incubated for 15 mins by Amplex red reagent based fluorimetric method; conditions: 0.25 h
T2 sequence (P21397 whole entry): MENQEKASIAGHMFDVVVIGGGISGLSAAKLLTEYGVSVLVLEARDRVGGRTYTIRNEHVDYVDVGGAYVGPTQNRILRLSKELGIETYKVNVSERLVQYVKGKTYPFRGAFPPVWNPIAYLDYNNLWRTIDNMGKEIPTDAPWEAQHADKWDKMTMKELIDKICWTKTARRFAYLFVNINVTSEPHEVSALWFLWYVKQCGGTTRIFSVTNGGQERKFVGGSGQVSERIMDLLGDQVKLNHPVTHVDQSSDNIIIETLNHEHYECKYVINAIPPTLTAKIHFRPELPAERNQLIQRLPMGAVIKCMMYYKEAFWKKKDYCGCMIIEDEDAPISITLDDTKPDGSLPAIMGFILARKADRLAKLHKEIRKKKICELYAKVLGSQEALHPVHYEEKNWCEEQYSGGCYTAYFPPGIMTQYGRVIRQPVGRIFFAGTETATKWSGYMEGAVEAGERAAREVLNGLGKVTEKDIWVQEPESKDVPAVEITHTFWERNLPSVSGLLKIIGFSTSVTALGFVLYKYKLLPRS

Homo sapiens = species on record: Homo sapiens; experiment: Selectivity index, ratio of IC50 for human recombinant MAOA to IC50 for human recombinant MAOB

COc1c(OC/C=C(\C)C[C@@H]2C=C(CCC(N)=O)C(=O)O2)ccc2ccc(=O)oc12
IC50 [1]: 144 nM | inhibition (INH) [2]: Not Active | Ratio IC50 (Homo sapiens): > 696
